Test: Pharmacokinetics after oral capsules (sCT plus Dmt-DALDA with citric acid and lauroyl carnitine), non-enteric coated or enteric coated, in fasted beagle dogs (plasma; ELISA for sCT, HPLC-MS for Dmt-DALDA)
Assay type: in vivo
Protocol: A second series of tests was carried out, as noted above, using beagle dogs. […] In the experiments represented in FIGS. 2A and 2B, size 00 […] capsules were each filled with 758 mg of a powdered blend consisting of citric acid (643 mg), lauroyl carnitine (66 mg), talc (33 mg), salmon calcitonin (sCT) (13 mg) and Dmt-DALDA (2.4 mg). Half of the capsules were coated with an enteric coating solution of L30D-55, while the remaining 50% of the capsules were not coated. Four fasted dogs were each given 1 uncoated capsule, and 2 weeks later they were each given an enteric coated capsule. After administration of each capsule, samples of blood were taken at 15 minute intervals from an indwelling catheter for up to 4 hours. The blood samples were centrifuged and the resulting plasma supernatants were stored frozen at −20° C. The plasma samples were subsequently analyzed for sCT by a direct ELISA, and for Dmt-DALDA by HPLC-mass spectrometry performed as set forth in Wan, H. and Desiderio, D., Quantitation of [DMT^1] DALDA in ovine plasma by on-line liquid chromatography/quadrapole time-of-flight mass spectrometry, Rapid Communications in Mass Spectrometry, 2003; 17, 538-546, the contents of which are incorporated herein by reference.
The results summarized in FIGS. 2A and 2B as plasma peptide concentration normalized to a 1 mg dose as a function of time relative to the average Tmax, (i.e., the time at which the maximum amount of peptide was detected) indicate that both peptides, i.e., sCT and Dmt-DALDA, were detected in dogs given uncoated or enteric coated capsules. […] Table DI (below) sets forth the values upon which the curves in FIGS. 2A and 2B are based. The results are summarized in the tables as plasma peptide concentration normalized to a 1 mg dose as a function of time. Table III, moreover, provides the standard deviations for the data obtained regarding each of the test dogs, which standard deviations are also indicated in FIGS. 2A and 2B.
Table IV (below) summarizes the pharmacokinetic parameters in dogs of orally administered sCT and Dmt-DALDA when administered in non-enteric coated versus enteric coated capsules. Peptide was not detected from 1 dog in each group due to (a) Dog 3 vomiting the uncoated capsule and (b) delayed gastric emptying in Dog 2 provided with an enteric coated capsule. Cmax and AUC are as defined with regard to Table H above.

## CC(C)C[C@H](NC(=O)[C@H](CCCCN)NC(=O)CNC(=O)[C@H](CC(C)C)NC(=O)[C@@H](NC(=O)[C@@H]1CSSC[C@H](N)C(=O)N[C@@H](CO)C(=O)N[C@@H](CC(N)=O)C(=O)N[C@@H](CC(C)C)C(=O)N[C@@H](CO)C(=O)N[C@@H]([C@@H](C)O)C(=O)N1)C(C)C)C(=O)N[C@@H](CO)C(=O)N[C@@H](CCC(N)=O)C(=O)N[C@@H](CCC(=O)O)C(=O)N[C@@H](CC(C)C)C(=O)N[C@@H](Cc1c[nH]cn1)C(=O)N[C@@H](CCCCN)C(=O)N[C@@H](CC(C)C)C(=O)N[C@@H](CCC(N)=O)C(=O)N[C@H](C(=O)N[C@@H](Cc1ccc(O)cc1)C(=O)N1CCC[C@H]1C(=O)N[C@@H](CCCNC(=N)N)C(=O)N[C@H](C(=O)N[C@@H](CC(N)=O)C(=O)N[C@H](C(=O)NCC(=O)N[C@@H](CO)C(=O)NCC(=O)N[C@H](C(=O)N1CCC[C@H]1C(N)=O)[C@@H](C)O)[C@@H](C)O)[C@@H](C)O)[C@@H](C)O [sCT, salmon calcitonin]
Enteric coated capsule, Dog 3, 75 min
  plasma peptide concentration normalized to a 1 mg dose: 0 pg/mL
Enteric coated capsule, Dog 3, 90 min
  plasma peptide concentration normalized to a 1 mg dose: 0 pg/mL
Enteric coated capsule, Dog 3, 105 min
  plasma peptide concentration normalized to a 1 mg dose: 0 pg/mL
Enteric coated capsule, Dog 3, 120 min
  plasma peptide concentration normalized to a 1 mg dose: 0 pg/mL
Enteric coated capsule, Dog 3, 135 min
  plasma peptide concentration normalized to a 1 mg dose: 13219 pg/mL
Enteric coated capsule, Dog 3, 150 min
  plasma peptide concentration normalized to a 1 mg dose: 10151 pg/mL
Enteric coated capsule, Dog 3, 165 min
  plasma peptide concentration normalized to a 1 mg dose: 4410 pg/mL
Enteric coated capsule, Dog 3, 180 min
  plasma peptide concentration normalized to a 1 mg dose: 2983 pg/mL
Enteric coated capsule, Dog 3, 195 min
  plasma peptide concentration normalized to a 1 mg dose: 1825 pg/mL
Enteric coated capsule, Dog 4, 0 min
  plasma peptide concentration normalized to a 1 mg dose: 0 pg/mL
Enteric coated capsule, Dog 4, 15 min
  plasma peptide concentration normalized to a 1 mg dose: 0 pg/mL
Enteric coated capsule, Dog 4, 30 min
  plasma peptide concentration normalized to a 1 mg dose: 0 pg/mL
Enteric coated capsule, Dog 4, 45 min
  plasma peptide concentration normalized to a 1 mg dose: 0 pg/mL
Enteric coated capsule, Dog 4, 60 min
  plasma peptide concentration normalized to a 1 mg dose: 0 pg/mL
Enteric coated capsule, Dog 4, 75 min
  plasma peptide concentration normalized to a 1 mg dose: 0 pg/mL
Enteric coated capsule, Dog 4, 90 min
  plasma peptide concentration normalized to a 1 mg dose: 0 pg/mL
Enteric coated capsule, Dog 4, 105 min
  plasma peptide concentration normalized to a 1 mg dose: 13111 pg/mL
Enteric coated capsule, Dog 4, 120 min
  plasma peptide concentration normalized to a 1 mg dose: 13147 pg/mL
Enteric coated capsule, Dog 4, 135 min
  plasma peptide concentration normalized to a 1 mg dose: 6841 pg/mL
Enteric coated capsule, Dog 4, 150 min
  plasma peptide concentration normalized to a 1 mg dose: 4251 pg/mL
Enteric coated capsule, Dog 4, 165 min
  plasma peptide concentration normalized to a 1 mg dose: 2448 pg/mL
Enteric coated capsule, Dog 4, 180 min
  plasma peptide concentration normalized to a 1 mg dose: 1468 pg/mL
Enteric coated capsule, Dog 4, 195 min
  plasma peptide concentration normalized to a 1 mg dose: 1192 pg/mL
non-enteric coated capsule, Dog 1, 45 min
  plasma peptide concentration normalized to a 1 mg dose: 1343 pg/mL
non-enteric coated capsule, Dog 1, 60 min
  plasma peptide concentration normalized to a 1 mg dose: 561 pg/mL
non-enteric coated capsule, Dog 1, 75 min
  plasma peptide concentration normalized to a 1 mg dose: 273 pg/mL
non-enteric coated capsule, Dog 1, 90 min
  plasma peptide concentration normalized to a 1 mg dose: 140 pg/mL
non-enteric coated capsule, Dog 1, 105 min
  plasma peptide concentration normalized to a 1 mg dose: 121 pg/mL
non-enteric coated capsule, Dog 1, 120 min
  plasma peptide concentration normalized to a 1 mg dose: 89 pg/mL
non-enteric coated capsule, Dog 1, 135 min
  plasma peptide concentration normalized to a 1 mg dose: 51 pg/mL
non-enteric coated capsule, Dog 1, 150 min
  plasma peptide concentration normalized to a 1 mg dose: 31 pg/mL
non-enteric coated capsule, Dog 1, 165 min
  plasma peptide concentration normalized to a 1 mg dose: 23 pg/mL
non-enteric coated capsule, Dog 1, 180 min
  plasma peptide concentration normalized to a 1 mg dose: 16 pg/mL
non-enteric coated capsule, Dog 1, 195 min
  plasma peptide concentration normalized to a 1 mg dose: 11 pg/mL
non-enteric coated capsule, Dog 1, 210 min
  plasma peptide concentration normalized to a 1 mg dose: 0 pg/mL
non-enteric coated capsule, Dog 1, 225 min
  plasma peptide concentration normalized to a 1 mg dose: 0 pg/mL
non-enteric coated capsule, Dog 1, 240 min
  plasma peptide concentration normalized to a 1 mg dose: 0 pg/mL
non-enteric coated capsule, Dog 2, 45 min
  plasma peptide concentration normalized to a 1 mg dose: 2151 pg/mL
non-enteric coated capsule, Dog 2, 60 min
  plasma peptide concentration normalized to a 1 mg dose: 897 pg/mL
non-enteric coated capsule, Dog 2, 75 min
  plasma peptide concentration normalized to a 1 mg dose: 229 pg/mL
non-enteric coated capsule, Dog 2, 90 min
  plasma peptide concentration normalized to a 1 mg dose: 182 pg/mL
non-enteric coated capsule, Dog 2, 105 min
  plasma peptide concentration normalized to a 1 mg dose: 122 pg/mL
non-enteric coated capsule, Dog 2, 120 min
  plasma peptide concentration normalized to a 1 mg dose: 69 pg/mL
non-enteric coated capsule, Dog 2, 135 min
  plasma peptide concentration normalized to a 1 mg dose: 44 pg/mL
non-enteric coated capsule, Dog 2, 150 min
  plasma peptide concentration normalized to a 1 mg dose: 39 pg/mL
non-enteric coated capsule, Dog 2, 165 min
  plasma peptide concentration normalized to a 1 mg dose: 22 pg/mL
non-enteric coated capsule, Dog 2, 180 min
  plasma peptide concentration normalized to a 1 mg dose: 15 pg/mL
non-enteric coated capsule, Dog 2, 195 min
  plasma peptide concentration normalized to a 1 mg dose: 0 pg/mL
non-enteric coated capsule, Dog 2, 210 min
  plasma peptide concentration normalized to a 1 mg dose: 0 pg/mL
non-enteric coated capsule, Dog 2, 225 min
  plasma peptide concentration normalized to a 1 mg dose: 0 pg/mL
non-enteric coated capsule, Dog 2, 240 min
  plasma peptide concentration normalized to a 1 mg dose: 0 pg/mL
non-enteric coated capsule, Dog 4, 45 min
  plasma peptide concentration normalized to a 1 mg dose: 278 pg/mL
non-enteric coated capsule, Dog 4, 60 min
  plasma peptide concentration normalized to a 1 mg dose: 163 pg/mL
non-enteric coated capsule, Dog 4, 75 min
  plasma peptide concentration normalized to a 1 mg dose: 101 pg/mL
non-enteric coated capsule, Dog 4, 90 min
  plasma peptide concentration normalized to a 1 mg dose: 69 pg/mL
non-enteric coated capsule, Dog 4, 105 min
  plasma peptide concentration normalized to a 1 mg dose: 45 pg/mL
non-enteric coated capsule, Dog 4, 120 min
  plasma peptide concentration normalized to a 1 mg dose: 26 pg/mL
non-enteric coated capsule, Dog 4, 135 min
  plasma peptide concentration normalized to a 1 mg dose: 16 pg/mL
non-enteric coated capsule, Dog 4, 150 min
  plasma peptide concentration normalized to a 1 mg dose: 12 pg/mL
non-enteric coated capsule, Dog 4, 165 min
  plasma peptide concentration normalized to a 1 mg dose: 0 pg/mL
non-enteric coated capsule, Dog 4, 180 min
  plasma peptide concentration normalized to a 1 mg dose: 0 pg/mL
non-enteric coated capsule, Dog 4, 195 min
  plasma peptide concentration normalized to a 1 mg dose: 0 pg/mL
non-enteric coated capsule, Dog 4, 210 min
  plasma peptide concentration normalized to a 1 mg dose: 0 pg/mL
non-enteric coated capsule, Dog 4, 225 min
  plasma peptide concentration normalized to a 1 mg dose: 0 pg/mL
non-enteric coated capsule, Dog 4, 240 min
  plasma peptide concentration normalized to a 1 mg dose: 0 pg/mL

Reference: US8835377B2, “Oral delivery of peptide pharmaceutical compositions” (UGP Therapeutics, Inc., priority 2004, dated 2014)
